By IC50 is commonly meant the concentration at which inhibition is half-maximal. Lower therefore signals greater potency in that assay.

The target in the assay is T1, human p38 kinase alpha (Homo sapiens, UniProt Q16539).
T1 construct: made in house; host or cells: E. coli DH10B
Briefly: p38 alpha kinase assay. The assay is classed as biochemical. The conditions noted are these: in vitro inhibition of activated human p38 kinase alpha; two formats described (PHAS-I/32P-ATP, EGFRP/33P-ATP), format used not stated; values given as ranges. As for the experimental part: The ability of compounds to inhibit human p38 kinase alpha was evaluated using two in vitro assay methods. In the first method, activated human p38 kinase alpha phosphorylates a biotinylated substrate, PHAS-I (phosphorylated heat and acid stable protein-insulin inducible), in the presence of gamma ^32P-ATP (^32P-ATP). PHAS-I was biotinylated prior to the assay and provides a means of capturing the substrate, which is phosphorylated during the assay. p38 Kinase was activated by MKK6. Compounds were tested in 10 fold serial dilutions over the range of 100 μM to 0.001 μM using 1% DMSO. Each concentration of inhibitor was tested in triplicate. All reactions were carried out in 96 well polypropylene plates. Each reaction well contained 25 mM HEPES pH 7.5, 10 mM magnesium acetate and 50µM unlabeled ATP. Activation of p38 was required to achieve sufficient signal in the assay. Biotinylated PHAS-I was used at 1-2 μg per 50 μl reaction volume, with a final concentration of 1.5 μM. Activated human p38 kinase alpha was used at 1 μg per 50 μl reaction volume representing a final concentration of 0.3 μM. […] The plates were sealed and counted. […] 150 μl of Microscint 40 was then added to each well of the Microlite plate, and the plate was sealed, mixed, and counted.

T1 sequence (Q16539 whole entry): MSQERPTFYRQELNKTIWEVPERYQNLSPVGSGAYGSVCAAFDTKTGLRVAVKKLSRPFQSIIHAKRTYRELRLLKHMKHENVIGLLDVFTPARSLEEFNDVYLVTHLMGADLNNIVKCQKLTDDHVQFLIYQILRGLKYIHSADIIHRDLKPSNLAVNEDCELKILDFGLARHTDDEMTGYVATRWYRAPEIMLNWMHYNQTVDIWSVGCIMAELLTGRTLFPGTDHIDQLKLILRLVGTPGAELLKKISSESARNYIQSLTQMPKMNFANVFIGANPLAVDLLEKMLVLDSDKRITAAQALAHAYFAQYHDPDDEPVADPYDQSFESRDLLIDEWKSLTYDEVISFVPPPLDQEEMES

`O=c1cc(OCCc2ccccc2)cnn1-c1c(Cl)cccc1Cl` [Compound 48, 2-(2,6-dichlorophenyl)-5-(2-phenylethoxy)pyridazin-3(2H)-one] registered an IC50 of 40 to 60 µM.
`Cc1c(OCCc2ccccc2)cnn(-c2c(Cl)cccc2Cl)c1=O` [Compound 49, 2-(2,6-dichlorophenyl)-4-methyl-5-(2-phenylethoxy)pyridazin-3(2H)-one]: the half-maximal inhibitory concentration (IC50) was 0.1 to 20 µM.

Source of the values: patent US20050020594A1, “Substituted pyridazinones” (Pharmacia Corporation, priority 2003, published 2005).
